How the values were obtained:
mTORC1 = mTORC1 (Homo sapiens (Human), UniProt P42345); assay: mTORC1 inhibitory activity: phosphorylation of S6RP in A431 cells (HTRF); format: cell-based; conditions: 3 hours at 37° C.
mTORC2 = mTORC2 (Homo sapiens (Human), UniProt P42345); assay: mTORC2 inhibitory activity: phosphorylation of AKT in A431 cells (HTRF); format: cell-based; conditions: 3 hours at 37° C.
mTOR = mTOR (Homo sapiens (Human), UniProt P42345); assay: Inhibitory activity on mTOR kinase (LANTHASCREEN TR-FRET); format: biochemical; conditions: 1 hour reaction at room temperature
[1] = system: patch model of atopic dermatitis; assay: Patch model of atopic dermatitis (DERP epicutaneous sensitization) in mice; format: in vivo, Balb/c mice; conditions: 0.07% in acetone vehicle, topical
Experimental: The antagonist (mTOR inhibitor) according to example 31 tested was formulated at 0.07% in an acetone vehicle, applied to the skin of the back of the mouse (10 μl/ear on the two faces) and left for 2 hours before applying the DERP patches. Topical treatments with the antagonist (mTOR inhibitor) or a corticosteroid (betamethasone 17-valerate at 0.01% used as control) were performed only three times in the course of the third and final week of sensitization (on days 44, 47 and 50).
The transepidermal water loss TEWL is measured using a […]® on a control animal. The […]® probe measures the density gradient of water evaporation from the skin indirectly by means of two pairs of sensors (temperature and relative humidity) inside a hollow cylinder. A microprocessor analyzes the values and expresses the evaporation rate in g/h/m2.
The epidermal thickness is measured by histological morphometric analyses on sections 6 μm thick stained with HE using skin samples fixed beforehand with […].
The inflammation score is defined visually as a function of predefined scales of dryness, cutaneous eruption, baldness, excoriation and lichenification. The mean of the five scores attributed to an individual mouse on a given day gives the clinical score attributed on that specific day.
To evaluate the contribution of mTOR to the inflammatory response of atopic dermatitis, the inventors used an atopic dermatitis model described previously based on repeated epicutaneous sensitizations (Spergel et al. JCI 1998; Staumont-Sallé et al. JEM 2015), with Dermatophagoides pteronyssinus (DERP) as antigen. In this model, the skin lesions caused by the atopic dermatitis present inflammation with Th2 dominant characterized by dermal infiltration of CD4+T lymphocytes and of eosinophils accompanied by deposition of eosinophil products and an increase in the cutaneous expression of the Th2 cytokines.
Following the protocol of example 33, the inflammatory response of atopic dermatitis was provoked by epicutaneous sensitization with patches soaked with 100 μg of allergen in sterile saline solution (Dermatophagoides pteronyssinus or DERP) or with a vehicle applied to the abdominal skin 24 hours after shaving and left in place for three periods of one week (with renewal of the patch in the middle of the week), with a 2-week interval between the applications. The presence of the patches and of a transparent occlusive dressing on top prevented the mice from licking, biting and scratching; consequently, the inflammatory response in this model is not due to the itching cycle.
The antagonist according to example 31 (mTOR inhibitor) was formulated at 0.07% in an acetone-based vehicle, applied to the sensitized skin 2 hours before installation of the DERP patches. […]

[2] = days 44, 47 and 50, female Balb/c mice, DERP patches

| IC50 (mTORC1) [nM] | IC50 (mTORC2) [nM] | Ki (mTOR) [nM] | SMILES | change in epidermal thickness (epidermal acanthosis) [1, 2] [%] | change in inflammatory scores [1, 2] | decrease of the increase in the rate of transepidermal water loss TEWL [1, 2] [%] | effect on the parameters studied (TEWL, epidermal thickness, inflammation score) ([1]; DERP patch model in mice) |
| --- | --- | --- | --- | --- | --- | --- | --- |
| 27.4 | 65.5 | 2.3 | CC(C)(C)Cn1nc(-c2cc3cc(O)cnc3[nH]2)c2c(N)nc(N)nc21 [Example 19, 2-[4,6-diamino-1-(2,2-dimethylpropyl)-1H-pyrazolo[3,4-d]pyrimidin-3-yl]-1H-pyrrolo[2,3-b]pyridin-5-ol] | – | – | – | – |
| 29.7 | 62.2 | 13.4 | CNc1nc(N)c2c(-c3ccc4oc(N)nc4c3)nn(C(C)C)c2n1 [Example 26, 3-(2-Aminobenzoxazol-5-yl)-1-isopropyl-N^6-methyl-1H-pyrazolo[3,4-d]pyrimidine-4,6-diamine] | – | – | – | – |
| 234 | 746 | 102 | CCC(C)(C)Cn1nc(-c2cc(C)c3oc(N)nc3c2)c2c(N)nc(N)nc21 [Example 29, 3-(2-amino-7-methylbenzoxazol-5-yl)-1-(2,2-dimethylbutyl)-1H-pyrazolo[3,4-d]pyrimidine-4,6-diamine] | – | – | – | – |
| 1.2 | 2.1 | 1 | CC(C)C[C@H](C)n1nc(-c2cc3nc(N)oc3cc2F)c2c(N)nc(N)nc21 [Example 2, 3-(2-amino-6-fluorobenzoxazol-5-yl)-1-((S)-1,3-dimethylbutyl)-1H-pyrazolo[3,4-d]pyrimidine-4,6-diamine] | – | – | – | – |
| 2.1 | 7 | 2.9 | CCC(C)(C)Cn1nc(-c2cc3nc(N)oc3cc2OC)c2c(N)nc(N)nc21 [Example 20, 3-(2-amino-6-methoxybenzoxazol-5-yl)-1-(2,2-dimethylbutyl)-1H-pyrazolo[3,4-d]pyrimidine-4,6-diamine] | – | – | – | – |
| 1.3 | 3.4 | – | CC1(Cn2nc(-c3cc4nc(N)oc4cc3F)c3c(N)nc(N)nc32)CCC1 [Example 4, 3-(2-amino-6-fluorobenzoxazol-5-yl)-1-(1-methylcyclobutylmethyl)-1H-pyrazolo[3,4-d]pyrimidine-4,6-diamine] | – | – | – | – |
| 1.4 | 4.1 | 1.2 | CC(C)(Cn1nc(-c2ccc3oc(N)nc3c2)c2c(N)nc(N)nc21)[C@@H]1CCCO1 [Example 13, (+)-3-(2-aminobenzoxazol-5-yl)-1-((S)-2-methyl-2-tetrahydrofuran-2-ylpropyl)-1H-pyrazolo[3,4-d]pyrimidine-4,6-diamine] | – | – | – | – |
| 1.2 | 4 | 1.8 | CC(C)(C)Cn1nc(-c2ccc3oc(N)nc3c2Cl)c2c(N)nc(N)nc21 [Example 17, 3-(2-amino-4-chlorobenzoxazol-5-yl)-1-(2,2-dimethylpropyl)-1H-pyrazolo[3,4-d]pyrimidine-4,6-diamine] | – | – | – | – |
| 1.1 | 3.7 | 1.2 | C=CC(C)(C)Cn1nc(-c2ccc3oc(N)nc3c2)c2c(N)nc(N)nc21 [Example 12, 3-(2-aminobenzoxazol-5-yl)-1-(2,2-dimethylbut-3-enyl)-1H-pyrazolo[3,4-d]pyrimidine-4,6-diamine] | – | – | – | – |
| 10.2 | 26.6 | 3.9 | CCC(CC)(Cn1nc(-c2ccc3oc(N)nc3c2)c2c(N)nc(N)nc21)S(C)(=O)=O [Example 22, 3-(2-aminobenzoxazol-5-yl)-1-(2-ethyl-2-methanesulfonylbutyl)-1H-pyrazolo[3,4-d]pyrimidine-4,6-diamine] | – | – | – | – |
| 5 | 5.9 | 0.8 | CCNc1nc2cc(-c3nn(CC(C)(C)C)c4nc(N)nc(N)c34)ccc2o1 [Example 11, 1-(2,2-dimethylpropyl)-3-(2-ethylaminobenzoxazol-5-yl)-1H-pyrazolo[3,4-d]pyrimidine-4,6-diamine] | – | – | – | – |
| 2.2 | 10.2 | 1.7 | CSC(C)(C)Cn1nc(-c2ccc3oc(N)nc3c2)c2c(N)nc(N)nc21 [Example 16, 3-(2-aminobenzoxazol-5-yl)-1-(2-methyl-2-methylsulfanylpropyl)-1H-pyrazolo[3,4-d]pyrimidine-4,6-diamine] | – | – | – | – |
| 1.2 | 3.8 | 1.2 | C#CC(C)(C)Cn1nc(-c2ccc3oc(N)nc3c2)c2c(N)nc(N)nc21 [Example 14, 3-(2-aminobenzoxazol-5-yl)-1-(2,2-dimethylbut-3-ynyl)-1H-pyrazolo[3,4-d]pyrimidine-4,6-diamine] | – | – | – | – |
| 2.8 | 5.9 | 5.8 | CC(C)Cn1nc(-c2ccc3oc(N)nc3c2)c2c(Cl)nc(N)nc21 [Example 23, 3-(2-aminobenzoxazol-5-yl)-4-chloro-1-isobutyl-1H-pyrazolo[3,4-d]pyrimidin-6-ylamine] | – | – | – | – |
| 8.1 | 15.3 | 14.3 | Cc1nc(N)nc2c1c(-c1ccc3oc(N)nc3c1)nn2CC(C)(C)C [Example 27, 5-(6-amino-4-methyl-1-neopentyl-1H-pyrazolo[3,4-d]pyrimidin-3-yl)benzo[d]oxazol-2-amine] | – | – | – | – |
| 43.8 | 40.2 | 21 | CC(C)n1nc(-c2ccc3oc(NC4CC4)nc3c2)c2c(N)nc(N)nc21 [Example 28, 3-(2-cyclopropylaminobenzoxazol-5-yl)-1-isopropyl-1H-pyrazolo[3,4-d]pyrimidine-4,6-diamine] | – | – | – | – |
| 1.7 | 7.2 | 1.5 | CC(C)(CO)Cn1nc(-c2ccc3oc(N)nc3c2)c2c(N)nc(N)nc21 [Example 15, 3-[4,6-diamino-3-(2-aminobenzoxazol-5-yl)pyrazolo[3,4-d]pyrimidin-1-yl]-2,2-dimethylpropan-1-ol] | – | – | – | – |
| 3.8 | 10.7 | 3.8 | CC(C)n1nc(-c2ccc3oc(N)nc3c2)c2c(N)nc(N)nc21 [Example 21, 3-(2-aminobenzoxazol-5-yl)-1-isopropyl-1H-pyrazolo[3,4-d]pyrimidine-4,6-diamine] | – | – | – | – |
| 2.1 | 4.3 | 2.1 | COc1cc2oc(N)nc2cc1-c1nn(CC(C)(C)C)c2nc(N)nc(N)c12 [Example 18, 3-(2-amino-6-methoxybenzoxazol-5-yl)-1-(2,2-dimethylpropyl)-1H-pyrazolo[3,4-d]pyrimidine-4,6-diamine] | – | – | – | – |
| 1.2 | 3 | 0.6 | CCC(C)(C)Cn1nc(-c2ccc3oc(N)nc3c2)c2c(N)nc(N)nc21 [Example 8, 3-(2-aminobenzoxazol-5-yl)-1-(2,2-dimethylbutyl)-1H-pyrazolo[3,4-d]pyrimidine-4,6-diamine] | – | – | – | – |
| 4.5 | 13.1 | 8.1 | CC(C)[C@H](C)n1nc(-c2cc3nc(N)oc3cc2Cl)c2c(N)nc(N)nc21 [Example 25, 3-(2-amino-6-chlorobenzoxazol-5-yl)-1-((S)-1,2-dimethylpropyl)-1H-pyrazolo[3,4-d]pyrimidine-4,6-diamine] | – | – | – | – |
| 6.8 | 15.5 | 6.1 | CC(C)n1nc(-c2ccc3oc(N)nc3c2)c2cnc(N)nc21 [Example 24, 3-(2-aminobenzoxazol-5-yl)-1-isopropyl-1H-pyrazolo[3,4-d]pyrimidin-6-ylamine] | – | – | – | – |

| SMILES | IC50 (mTORC1) [nM] | IC50 (mTORC2) [nM] | Ki (mTOR) [nM] | change in epidermal thickness (epidermal acanthosis) [1, 2] [%] | change in inflammatory scores [1, 2] | decrease of the increase in the rate of transepidermal water loss TEWL [1, 2] [%] | effect on the parameters studied (TEWL, epidermal thickness, inflammation score) ([1]; DERP patch model in mice) |
| --- | --- | --- | --- | --- | --- | --- | --- |
| CC(C)n1nc(-c2ccc3oc(N)nc3c2)c2c(Cl)nc(N)nc21 [Example 31, 5-(6-Amino-4-chloro-1-isopropyl-1H-pyrazolo[3,4-d]pyrimidin-3-yl)benzo[d]oxazol-2-amine] | 8.4 | 21 | 10 | −39 | −40 | −68 | reduces all the parameters studied |

From US11731973B2, “Substituted pyrazolo[3,4-d]pyrimidines as mTOR inhibitors” (GALDERMA RESEARCH & DEVELOPMENT, priority 2018, dated 2023)
